Experimental findings from article PMC9841523 (Journal of Medicinal Chemistry, 2022) are described below.

Holding throughout (format): cell-based
Assay [1] relates to AKT S473 phosphorylation (mTORC2). The assay can be described thus: AlphaLISA/MSD analysis of AKT phosphorylation in MDA-MB-468 cells. The method, then: (§1) Cell culture and reagents. Cells were obtained from ATCC, grown in appropriate medium supplemented with 10% fetal bovine serum and 1% penicillin/streptomycin and maintained at 37 °C in a humidified incubator at 5% CO 2.
(§2) AlphaLISA and MesoScale Discovery (MSD) analysis of 4EBP1, S6K and AKT phosphorylation. mTOR substrate phosphorylation in MDA-MB-468 cells was assayed using AlphaLISA SureFire Ultra kits for p4EBP1 Thr37/46, p-P70S6K Thr389 and p-AKT1/2/3 Ser473 (PerkinElmer), and MSD Multi-Array Assay Systems for Phospho-4EBP1 (Thr37/46) and Phospho-AKT (Ser473) (MSD). Cells were seeded at 25,000 cells per well and exposed the next day to serial three-fold dilutions of compounds in complete medium with 0.1% dimethylsulfoxide (DMSO). After indicated incubation times, cells were lysed and AlphaLISA or MSD performed according to the manufacturers’ protocols. Samples were read using an EnVision Multilabel Plate Reader (PerkinElmer) using standard AlphaLISA settings or using an MSD plate reader. Data were plotted as a function of logM [compound] with a sigmoidal concentration response (variable slope) model fitted to the data to estimate the inhibitor half-maximum effective concentration (EC 50) in Prism 7 (GraphPad). Alternatively, results were analyzed as percentage of control in which 0% was set as signal from 1 μM Torin1 and 100% was set as the mean of DMSO wells on each plate, and inhibitor EC 50 was estimated as described
(Bead proximity is the source of the signal in Alpha formats.)

Assay [2] has as its system 4EBP1 T37/T46 phosphorylation (mTORC1). Briefly: AlphaLISA/MSD analysis of 4EBP1 phosphorylation in MDA-MB-468 cells. Particulars: for IC50: read-out: p4EBP1 IC50. Here is the method:
as §1, §2

The test system of assay [3] is p-P70S6K Thr389. Briefly: AlphaLISA/MSD analysis of S6K phosphorylation in MDA-MB-468 cells. Particulars: MDA-MB-468 cells, read-out: pS6K IC50. The method, then:
as §1, §2

[4] abbreviates: Homo sapiens, MDA-MB-468 cells, read-out: pAKT IC50.
Where [5] appears, read: up to a maximal test concentration of 1 μM.

Where two headings read alike, the source gives them in different places. Bounds are passed on as bounds.

As a reminder, the IC50 is the concentration that gives 50% inhibition. For `CO[C@H]1C[C@@H]2CC[C@@H](C)[C@@](O)(O2)C(=O)C(=O)N2CCCC[C@H]2C(=O)O[C@H]([C@H](C)C[C@@H]2CC[C@@H](OCCCCc3cn(CCOCCOCCOCCOCCOCCOCCOCCOCCC(=O)NCCCCn4nc(-c5ccc6oc(N)nc6c5)c5c(N(C)C)ncnc54)nn3)[C@H](OC)C2)CC(=O)[C@H](C)/C=C(\C)[C@@H](O)[C@@H](OC)C(=O)[C@H](C)C[C@H](C)/C=C/C=C/C=C/1C` [compound 23], the IC50 was > 1000 nM in assay [1] (setting [4]); > 1000 nM in assay [2] (Homo sapiens, MDA-MB-468 cells); 0.29 nM in assay [3] (Homo sapiens). Moreover, in assay [1] (setting [5]), the pAKT inhibition result is “inactive”. The p4EBP1 inhibition entry in assay [2] (setting [5]) was “inactive”.
Consider `CO[C@H]1C[C@@H]2CC[C@@H](C)[C@@](O)(O2)C(=O)C(=O)N2CCCC[C@H]2C(=O)O[C@H]([C@H](C)C[C@@H]2CC[C@@H](OC(=O)NCCOCCOCCOCCOCCOCCOCCOCCOCCC(=O)NCCCCn3nc(-c4ccc5oc(N)nc5c4)c4c(N)ncnc43)[C@H](OC)C2)CC(=O)[C@H](C)/C=C(\C)[C@@H](O)[C@@H](OC)C(=O)[C@H](C)C[C@H](C)/C=C/C=C/C=C/1C` [compound 29], for which the concentration for half-maximal inhibition (IC50) in assay [1] (setting [4]) came out at 3.6 nM; in assay [2] (Homo sapiens, MDA-MB-468 cells), 1.7 nM; in assay [3] (Homo sapiens), 0.61 nM.
For `CO[C@H]1C[C@@H]2CC[C@@H](C)[C@@](O)(O2)C(=O)C(=O)N2CCCC[C@H]2C(=O)O[C@H]([C@H](C)C[C@@H]2CC[C@@H](OCCCCc3cn(CCOCCOCCOCCOCCOCCC(=O)NCCCCn4nc(-c5ccc6oc(N)nc6c5)c5c(N)ncnc54)nn3)[C@H](OC)C2)CC(=O)[C@H](C)/C=C(\C)[C@@H](O)[C@@H](OC)C(=O)[C@H](C)C[C@H](C)/C=C/C=C/C=C/1C` [compound 28], in that order: 33 nM, 25 nM and 0.37 nM.
Consider `CO[C@H]1C[C@@H]2CC[C@@H](C)[C@@](O)(O2)C(=O)C(=O)N2CCCC[C@H]2C(=O)O[C@H]([C@H](C)C[C@@H]2CC[C@@H](OCCCCc3cn(CCOCCOCCOCCOCCOCCOCCOCCOCCC(=O)NCCCCn4nc(-c5cc6cc(O)ccc6[nH]5)c5c(N)ncnc54)nn3)[C@H](OC)C2)CC(=O)[C@H](C)/C=C(\C)[C@@H](O)[C@@H](OC)C(=O)[C@H](C)C[C@H](C)/C=C/C=C/C=C/1C` [compound 18], for which the IC50 in assay [1] (setting [4]) stood at 18 nM; in assay [2] (Homo sapiens, MDA-MB-468 cells) it was 1.4 nM; in assay [3] (Homo sapiens) it was 0.28 nM. Further, the “selectivity for mTORC1 over mTORC2” value in assay [2] (pAKT versus p4EBP1 inhibition, MDA-MB-468 cells) was “approximately 13 fold”.
As to `COc1ccc(-c2ccc3ncc4c(c3c2)n(C)c(=O)n4-c2ccc(N3CCN(C(=O)CCOCCOCCOCCOCCOCCOCCOCCOCCn4cc(CCCCO[C@@H]5CC[C@@H](C[C@@H](C)[C@@H]6CC(=O)[C@H](C)/C=C(\C)[C@@H](O)[C@@H](OC)C(=O)[C@H](C)C[C@H](C)/C=C/C=C/C=C(\C)[C@@H](OC)C[C@@H]7CC[C@@H](C)[C@@](O)(O7)C(=O)C(=O)N7CCCC[C@H]7C(=O)O6)C[C@H]5OC)nn4)CC3)c(C(F)(F)F)c2)cn1` [compound 19], the IC50 in assay [1] (setting [4]) turned out to be 0.52 nM; in assay [2] (Homo sapiens, MDA-MB-468 cells), 0.06 nM; in assay [3] (Homo sapiens), 0.02 nM.
Consider `CO[C@H]1C[C@@H]2CC[C@@H](C)[C@@](O)(O2)C(=O)C(=O)N2CCCC[C@H]2C(=O)O[C@H]([C@H](C)C[C@@H]2CC[C@@H](OCCCCc3cn(CCOCCOCCOCCOCCOCCOCCOCCOCCC(=O)N4CCC(Cn5nc(-c6ccc7oc(N)nc7c6)c6c(N)ncnc65)CC4)nn3)[C@H](OC)C2)CC(=O)[C@H](C)/C=C(\C)[C@@H](O)[C@@H](OC)C(=O)[C@H](C)C[C@H](C)/C=C/C=C/C=C/1C` [compound 22], for which the IC50 in assay [1] (setting [4]) came out at 1.8 nM; in assay [2] (Homo sapiens, MDA-MB-468 cells), 0.67 nM; in assay [3] (Homo sapiens), 0.16 nM.
In the case of `COc1ccc(-c2ccc3ncc4c(c3c2)n(-c2ccc(N3CCN(C(=O)CCOCCOCCOCCOCCOCCOCCn5cc(CCCCO[C@@H]6CC[C@@H](C[C@@H](C)[C@@H]7CC(=O)[C@H](C)/C=C(\C)[C@@H](O)[C@@H](OC)C(=O)[C@H](C)C[C@H](C)/C=C/C=C/C=C(\C)[C@@H](OC)C[C@@H]8CC[C@@H](C)[C@@](O)(O8)C(=O)C(=O)N8CCCC[C@H]8C(=O)O7)C[C@H]6OC)nn5)CC3)c(C(F)(F)F)c2)c(=O)n4C)cn1` [compound 26], the IC50 in assay [1] (setting [4]) was determined as 0.74 nM; in assay [2] (Homo sapiens, MDA-MB-468 cells) it was 0.08 nM; in assay [3] (Homo sapiens) it was 0.03 nM.
`CO[C@H]1C[C@@H]2CC[C@@H](C)[C@@](O)(O2)C(=O)C(=O)N2CCCC[C@H]2C(=O)O/C([C@H](C)C[C@@H]2CC[C@@H](OC(=O)NCCOCCOCCOCCOCCOCCOCCOCCOCCC(=O)N3CCc4cc(Cn5nc(-c6ccc7oc(N)nc7c6)c6c(N)ncnc65)ccc4C3)[C@H](OC)C2)=C/C(=O)[C@H](C)/C=C(\C)[C@@H](O)[C@@H](OC)C(=O)[C@H](C)C[C@H](C)/C=C/C=C/C=C/1C` [compound 33]: the IC50 is > 1000 nM in assay [1] (setting [4]); 320 nM in assay [2] (Homo sapiens, MDA-MB-468 cells); 80 nM in assay [3] (Homo sapiens).
For `CO[C@H]1C[C@@H]2CC[C@@H](C)[C@@](O)(O2)C(=O)C(=O)N2CCCC[C@H]2C(=O)O[C@H]([C@H](C)C[C@@H]2CC[C@@H](OCCCCc3cn(CCOCCOCCOCCOCCOCCOCCC(=O)NCCCCn4nc(-c5ccc6oc(N)nc6c5)c5c(N)ncnc54)nn3)[C@H](OC)C2)CC(=O)[C@H](C)/C=C(\C)[C@@H](O)[C@@H](OC)C(=O)[C@H](C)C[C@H](C)/C=C/C=C/C=C/1C` [compound 27], in that order: 5.2 nM, 1.1 nM and 0.26 nM.
As for `Nc1ncnc2c1c(-c1cnc3[nH]ccc3c1)nn2C1CCCC1` [compound 8, PP121, reference compound], the IC50 in assay [1] (Homo sapiens, MDA-MB-468, read-out: pAKT IC50) is 100 nM.
As to `CO[C@H]1C[C@@H]2CC[C@@H](C)[C@@](O)(O2)C(=O)C(=O)N2CCCC[C@H]2C(=O)O[C@H]([C@H](C)C[C@@H]2CC[C@@H](OCCOCc3cn(CCOCCOCCOCCOCCOCCOCCOCCOCCC(=O)NCCCCn4nc(-c5cc6cc(O)ccc6[nH]5)c5c(N)ncnc54)nn3)[C@H](OC)C2)CC(=O)[C@H](C)/C=C(\C)[C@@H](O)[C@@H](OC)C(=O)[C@H](C)C[C@H](C)/C=C/C=C/C=C/1C` [compound 17, reference compound], the IC50 in assay [1] (setting [4]) came out at 24 nM; in assay [2] (Homo sapiens, MDA-MB-468 cells) it was 2.5 nM; in assay [3] (Homo sapiens), 0.47 nM.
Consider `CO[C@H]1C[C@@H]2CC[C@@H](C)[C@@](O)(O2)C(=O)C(=O)N2CCCC[C@H]2C(=O)O[C@H]([C@H](C)C[C@@H]2CC[C@@H](OCCOCc3cn(CCOCCOCCOCCOCCOCCOCCOCCOCCC(=O)NCCCCn4nc(-c5ccc6oc(N)nc6c5)c5c(N)ncnc54)nn3)[C@H](OC)C2)CC(=O)[C@H](C)/C=C(\C)[C@@H](O)[C@@H](OC)C(=O)[C@H](C)C[C@H](C)/C=C/C=C/C=C/1C` [compound 3, RapaLink-1, reference compound], for which the IC50 in assay [1] (setting [4]) came to 6.7 nM; in assay [2] (Homo sapiens, MDA-MB-468 cells) it was 1.7 nM; in assay [3] (Homo sapiens), 0.93 nM.
Take BGT226 [compound 7, reference compound]: the IC50 in assay [1] (MDA-MB-468 cells, read-out: pAKT IC50) worked out at 1.4 nM; in assay [2] (MDA-MB-468 cells), 4.4 nM; in assay [3], 0.27 nM. Also, the “selectivity (mTORC1/mTORC2 ratio)” value in assay [2] (pAKT IC50 versus p4EBP1 IC50, MDA-MB-468 cells) amounted to 0.3.
As for `CO[C@H]1C[C@@H]2CC[C@@H](C)[C@@](O)(O2)C(=O)C(=O)N2CCCC[C@H]2C(=O)O[C@H]([C@H](C)C[C@@H]2CC[C@@H](OCCCCc3cn(CCOCCOCCOCCOCCOCCOCCC(=O)NCCCCn4nc(-c5cnc6[nH]ccc6c5)c5c(N)ncnc54)nn3)[C@H](OC)C2)CC(=O)[C@H](C)/C=C(\C)[C@@H](O)[C@@H](OC)C(=O)[C@H](C)C[C@H](C)/C=C/C=C/C=C/1C` [compound 24], the IC50 was determined as 110 nM in assay [1] (setting [4]); 31 nM in assay [2] (Homo sapiens, MDA-MB-468 cells); 0.24 nM in assay [3] (Homo sapiens). Besides, the “reduction in mTORC1 p4EBP1 activity on going from 8 PEG units to 6 PEG units” value in assay [2] (versus the 8 PEG analog) is on record as > 30 fold.
